Several values for one entry are separate records, joined by “and”; a condition that tells them apart may be missing. Equal entries are not always repeated.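 These data come from cells grown in 96-well plates and exposed to compound for 48 hours at five concentrations. At the GI50, growth is halved. Definition used: TGI = concentration required for complete inhibition of growth.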
Each molecule was assayed on MDA-MB-468 breast (assay: NCI anticancer screen, dose series, 48 h).

Compared with `O=C1c2cccc(NCCN=Cc3cc(O)ccc3O)c2C(=O)c2c(NCCN=Cc3cc(O)ccc3O)cccc21`, `O=C(NCCOCCOCCNc1cccc2c1C(=O)N(C1CCCNC1=O)C2=O)c1cc2c(o1)C(=O)c1ccccc1C2=O` (centres undefined) is 2.8-fold higher in GI50: 584 nM for the first, 1610 nM for the second.

First: Cn1cc(-c2cnc3ccc(NC(=O)Nc4ccc(F)c(Br)c4)cc3n2)cn1
Second: CC1=C(C(=O)Nc2ccc3[nH]ncc3c2)C(c2ccc3ccccc3c2)CC(=O)N1 (centres undefined)
The GI50 of the first is 9.9-fold lower: 1410 nM for the first, 13900 nM for the second.

First: Nc1ccn(C2O[C@H](CO)[C@@H](O)[C@@H]2O)c(=O)n1 (some centres undefined)
Second: NCC(=O)NS(=O)(=O)OC[C@H]1O[C@@H](n2cnc3c(N)ncnc32)[C@H](O)[C@@H]1O
The GI50 of the first is higher: > 100000 nM for the first, 742 nM for the second.

`O=C1/C(=C/c2ccc(Br)cc2)C=C(c2ccccc2)N1CCc1ccccc1` and `O=C(CI)NC1Oc2ccccc2-c2oc(=O)c(-c3ccccc3)cc21` (centres undefined) are within 1.5-fold of each other in GI50: 1270 nM for the first, 1790 nM for the second.

Going from `COC(=O)CCCCN=Cc1c(O)c(O)c(C(C)C)c2cc(C)c(-c3c(C)cc4c(C(C)C)c(O)c(O)c(C=NCCCCC(=O)OC)c4c3O)c(O)c12` to `O=C1c2c(c3c4ccccc4n(CCCCCCBr)c3c3[nH]c4ccccc4c23)C(=O)N1O`, the GI50 rises from 780 nM to 2820 nM (3.6-fold).

Compared with `COc1ccc(/C(=C2\O[C@@H]([C@H]3COC(C)(C)O3)[C@H]3OC(C)(C)O[C@@H]23)c2cc(OC)c(OC)c(OC)c2)cc1O`, `COc1ccc(C2=NN(C(=O)c3cc(OC)c(OC)c(OC)c3)C(c3ccc(C#N)cc3)C2)cc1OC` (centres undefined) is 35-fold lower in GI50: 14500 nM for the first, 419 nM for the second.

Going from `CN(C)CCNc1cc(-c2ccccc2)nc2ccccc12` to `CCNCCNc1cc(-c2ccc(C(=O)OC)cc2)c(C#N)c2nc3ccccc3n12`, the GI50 falls from 3850 nM to 1370 nM (2.8-fold).

Compared with `CC[CH2][Pb]([CH2]CC)([CH2]CC)[O]C(=O)C(F)(F)F`, `CCCCC(=O)OCC1OC(n2cnc3c(=S)nc[nH]c32)C(OC(=O)CCCC)C1OC(=O)CCCC` (centres undefined) is 3.9-fold higher in GI50: 55.1 nM for the first, 215 nM for the second.

First: O=C(O)CCCCC(CCSCc1ccccc1)SCc1ccccc1 (centres undefined)
Second: CCCCC/C(C=C(C#N)C#N)=C/c1ccccc1
The GI50 of the first is 4.4-fold higher: 45100 nM for the first, 10200 nM for the second.

`COc1cc(/C=N/n2cnc3oc(-c4ccccc4)cc3c2=N)cc(CN2CCCC2)c1O` and `COc1ccc2c(c1)c(-c1nc(-c3cn(C)c4ncccc34)cs1)cn2CCCN1CCCCC1` are within 1.5-fold of each other in GI50: 2010 nM for the first, 1800 nM for the second.

`N#C/C(=C1C=C/C(=N/O)C(Br)=C/1)c1ccccc1` and `N#CSCC1CC(O)(c2ccccc2)C(c2ccccc2)C(c2ccc(Cl)cc2)O1` (centres undefined) are within 1.5-fold of each other in GI50: 1530 nM for the first, 1440 nM for the second.

First: O=c1oc2ccc(F)cc2c(=O)n1-c1ccc(F)cc1F
Second: Cc1c(F)c(N)c2c(=O)cc(-c3ccc(NC(=O)CN(C)C)c(F)c3)oc2c1F
The GI50 of the first is 48-fold higher: 2760 nM for the first, 57.7 nM for the second.

Going from `C[C@]12CC[C@H](O)CC1=CC[C@@H]1[C@@H]2CC[C@]2(C)C(c3cccnc3)=CC[C@@H]12` to `CC1=C(CCCNS(C)(=O)=O)C2=C(C)C3(CC3)[C@@](C)(O)C(=O)C2=C1`, the GI50 falls from 26900 nM to 354 nM (76-fold).

Compared with `CN(C)CCNC(=O)c1ccc(-c2nc3ccc4[nH]ncc4c3c3c2CCC3)cc1`, `O=C(Nc1ccc(N2CCNCC2)cc1)c1[nH]ncc1Nc1cc(Oc2ccccc2)ncn1` is 4.4-fold higher in GI50: 448 nM for the first, 1990 nM for the second.

First: CNC(=O)OCc1c(COC(=O)NC)c(-c2ccc(Cl)c(Cl)c2)n2c1SCC2
Second: O=[N+]([O-])/C=C\c1ccc(Cl)c(Cl)c1
The GI50 of the first is 6.8-fold lower: 264 nM for the first, 1790 nM for the second.

Going from `COc1cc(/C=C/c2cc(/C=C/c3ccc(O)c(OC)c3)n(-c3ccccc3)n2)ccc1O` to `COc1ccc2[nH]c(O)c(/C=c3/cc4c(c(-c5cc(OC)c(OC)c(OC)c5)n3)=Nc3ccccc3-4)c2c1`, the GI50 rises from 271 nM to 2620 nM (9.7-fold).

`CCOc1cccc(/C=N/NC(=O)c2ccccc2Nc2ccnc(C(F)(F)F)c2)c1O` and `COc1cccc(/C=N/NC(=O)c2ccccc2Nc2ccnc(C(F)(F)F)c2)c1O` are within 1.5-fold of each other in GI50: 271 nM for the first, 218 nM for the second.

`COc1cc(OC)cc(-c2ccc(-c3ccc(C(=N)N)o3)o2)c1` and `Cc1ccc(CS/C(=C\c2ccc([N+](=O)[O-])cc2)C(=O)c2ccc(F)cc2)cc1` are within 1.5-fold of each other in GI50: 2400 nM for the first, 3410 nM for the second.

First: Oc1ccc(CSc2nnc(-c3cnccn3)n2-c2ccccc2)c2cccnc12
Second: CN1CCN(Cc2ccc(NC(=O)c3cncc(C#Cc4cnc(N)c5ccc(C#N)cc45)c3)cc2C(F)(F)F)CC1
The GI50 of the first is 16-fold higher: 970 nM for the first, 60.8 nM for the second.

Compared with `CCCCCc1ccc(S(=O)(=O)Nc2cccc(-c3csc(NC(=O)CCCCCN4CCN(C)CC4)n3)c2)cc1`, `O=C(CN1CCOCC1)Nc1ccc(Cn2nnc3c2C(=O)c2nnn(Cc4ccc(NC(=O)CN5CCOCC5)cc4)c2C3=O)cc1` is 8.6-fold lower in GI50: 1790 nM for the first, 208 nM for the second.

Compared with `Cc1ccc(S(=O)(=O)N(CCOc2ccc(/C(N)=N/Cl)cc2)CCOc2ccc(/C(N)=N\Cl)cc2)cc1`, `Cn1c(N2NC(=O)C(N=Nc3ccc(S(N)(=O)=O)cc3)C2=O)nc(-c2ccco2)c(C#N)c1=O` (centres undefined) is 2.5-fold lower in GI50: 3980 nM for the first, 1610 nM for the second.

`Cc1ccc2c(c1)C(=O)/C(=C/c1ncc([N+](=O)[O-])n1C)O2` gave a GI50 of 1850 nM.

Going from `O=C1c2cccc(NCCN=Cc3cc(O)ccc3O)c2C(=O)c2c(NCCN=Cc3cc(O)ccc3O)cccc21` to `O=C(NCCOCCOCCNc1cccc2c1C(=O)N(C1CCCNC1=O)C2=O)c1cc2c(o1)C(=O)c1ccccc1C2=O` (centres undefined), the TGI rises from 2370 nM to 4430 nM (1.9-fold).

First: Cn1cc(-c2cnc3ccc(NC(=O)Nc4ccc(F)c(Br)c4)cc3n2)cn1
Second: CC1=C(C(=O)Nc2ccc3[nH]ncc3c2)C(c2ccc3ccccc3c2)CC(=O)N1 (centres undefined)
The TGI of the first is lower: 3860 nM for the first, > 25000 nM for the second.

First: Nc1ccn(C2O[C@H](CO)[C@@H](O)[C@@H]2O)c(=O)n1 (some centres undefined)
Second: NCC(=O)NS(=O)(=O)OC[C@H]1O[C@@H](n2cnc3c(N)ncnc32)[C@H](O)[C@@H]1O
The TGI of the first is higher: > 100000 nM for the first, 2560 nM for the second.

First: O=C1/C(=C/c2ccc(Br)cc2)C=C(c2ccccc2)N1CCc1ccccc1
Second: O=C(CI)NC1Oc2ccccc2-c2oc(=O)c(-c3ccccc3)cc21 (centres undefined)
The TGI of the first is 1.8-fold higher: 7800 nM for the first, 4320 nM for the second.

First: COC(=O)CCCCN=Cc1c(O)c(O)c(C(C)C)c2cc(C)c(-c3c(C)cc4c(C(C)C)c(O)c(O)c(C=NCCCCC(=O)OC)c4c3O)c(O)c12
Second: O=C1c2c(c3c4ccccc4n(CCCCCCBr)c3c3[nH]c4ccccc4c23)C(=O)N1O
The TGI of the first is 2.7-fold lower: 3060 nM for the first, 8180 nM for the second.

Compared with `COc1ccc(/C(=C2\O[C@@H]([C@H]3COC(C)(C)O3)[C@H]3OC(C)(C)O[C@@H]23)c2cc(OC)c(OC)c(OC)c2)cc1O`, `COc1ccc(C2=NN(C(=O)c3cc(OC)c(OC)c(OC)c3)C(c3ccc(C#N)cc3)C2)cc1OC` (centres undefined) is 12-fold lower in TGI: 34100 nM for the first, 2890 nM for the second.

First: CN(C)CCNc1cc(-c2ccccc2)nc2ccccc12
Second: CCNCCNc1cc(-c2ccc(C(=O)OC)cc2)c(C#N)c2nc3ccccc3n12
The TGI of the first is 5.9-fold higher: 16800 nM for the first, 2860 nM for the second.

First: CC[CH2][Pb]([CH2]CC)([CH2]CC)[O]C(=O)C(F)(F)F
Second: CCCCC(=O)OCC1OC(n2cnc3c(=S)nc[nH]c32)C(OC(=O)CCCC)C1OC(=O)CCCC (centres undefined)
The TGI of the first is 9.9-fold lower: 153 nM for the first, 1520 nM for the second.

Compared with `O=C(O)CCCCC(CCSCc1ccccc1)SCc1ccccc1` (centres undefined), `CCCCC/C(C=C(C#N)C#N)=C/c1ccccc1` is lower in TGI: > 91400 nM for the first, 27200 nM for the second.

`COc1cc(/C=N/n2cnc3oc(-c4ccccc4)cc3c2=N)cc(CN2CCCC2)c1O` and `COc1ccc2c(c1)c(-c1nc(-c3cn(C)c4ncccc34)cs1)cn2CCCN1CCCCC1` are within 1.5-fold of each other in TGI: 5080 nM for the first, 3550 nM for the second.

Going from `N#C/C(=C1C=C/C(=N/O)C(Br)=C/1)c1ccccc1` to `N#CSCC1CC(O)(c2ccccc2)C(c2ccccc2)C(c2ccc(Cl)cc2)O1` (centres undefined), the TGI falls from 15000 nM to 2850 nM (5.3-fold).

Compared with `O=c1oc2ccc(F)cc2c(=O)n1-c1ccc(F)cc1F`, `Cc1c(F)c(N)c2c(=O)cc(-c3ccc(NC(=O)CN(C)C)c(F)c3)oc2c1F` is 20-fold lower in TGI: 7780 nM for the first, 394 nM for the second.

Compared with `C[C@]12CC[C@H](O)CC1=CC[C@@H]1[C@@H]2CC[C@]2(C)C(c3cccnc3)=CC[C@@H]12`, `CC1=C(CCCNS(C)(=O)=O)C2=C(C)C3(CC3)[C@@](C)(O)C(=O)C2=C1` is lower in TGI: > 100000 nM for the first, 1660 nM for the second.

First: CN(C)CCNC(=O)c1ccc(-c2nc3ccc4[nH]ncc4c3c3c2CCC3)cc1
Second: O=C(Nc1ccc(N2CCNCC2)cc1)c1[nH]ncc1Nc1cc(Oc2ccccc2)ncn1
The TGI of the first is 3.2-fold lower: 1490 nM for the first, 4830 nM for the second.

Compared with `CNC(=O)OCc1c(COC(=O)NC)c(-c2ccc(Cl)c(Cl)c2)n2c1SCC2`, `O=[N+]([O-])/C=C\c1ccc(Cl)c(Cl)c1` is 3-fold higher in TGI: 1270 nM for the first, 3760 nM for the second.

First: COc1cc(/C=C/c2cc(/C=C/c3ccc(O)c(OC)c3)n(-c3ccccc3)n2)ccc1O
Second: COc1ccc2[nH]c(O)c(/C=c3/cc4c(c(-c5cc(OC)c(OC)c(OC)c5)n3)=Nc3ccccc3-4)c2c1
The TGI of the first is 13-fold lower: 908 nM for the first, 11700 nM for the second.

`CCOc1cccc(/C=N/NC(=O)c2ccccc2Nc2ccnc(C(F)(F)F)c2)c1O` and `COc1cccc(/C=N/NC(=O)c2ccccc2Nc2ccnc(C(F)(F)F)c2)c1O` are within 1.5-fold of each other in TGI: 9280 nM for the first, 9620 nM for the second.

Going from `COc1cc(OC)cc(-c2ccc(-c3ccc(C(=N)N)o3)o2)c1` to `Cc1ccc(CS/C(=C\c2ccc([N+](=O)[O-])cc2)C(=O)c2ccc(F)cc2)cc1`, the TGI rises from 4730 nM to 16400 nM (3.5-fold).

First: Oc1ccc(CSc2nnc(-c3cnccn3)n2-c2ccccc2)c2cccnc12
Second: CN1CCN(Cc2ccc(NC(=O)c3cncc(C#Cc4cnc(N)c5ccc(C#N)cc45)c3)cc2C(F)(F)F)CC1
The TGI of the first is higher: > 20000 nM for the first, 627 nM for the second.

First: CCCCCc1ccc(S(=O)(=O)Nc2cccc(-c3csc(NC(=O)CCCCCN4CCN(C)CC4)n3)c2)cc1
Second: O=C(CN1CCOCC1)Nc1ccc(Cn2nnc3c2C(=O)c2nnn(Cc4ccc(NC(=O)CN5CCOCC5)cc4)c2C3=O)cc1
The TGI of the first is 6.3-fold higher: 3460 nM for the first, 550 nM for the second.

First: Cc1ccc(S(=O)(=O)N(CCOc2ccc(/C(N)=N/Cl)cc2)CCOc2ccc(/C(N)=N\Cl)cc2)cc1
Second: Cn1c(N2NC(=O)C(N=Nc3ccc(S(N)(=O)=O)cc3)C2=O)nc(-c2ccco2)c(C#N)c1=O (centres undefined)
The TGI of the first is 3.2-fold higher: 21400 nM for the first, 6730 nM for the second.

`Cc1ccc2c(c1)C(=O)/C(=C/c1ncc([N+](=O)[O-])n1C)O2` was tested, and the TGI was 4340 nM.

`COc1cc(O)c2c(c1)/C=C/C[C@H](O)[C@H](O)C(=O)/C=C\C[C@H](C)OC2=O` was tested, and the GI50 was 3850 nM and 5600 nM.

`COc1cc(O)c2c(c1)/C=C/C[C@H](O)[C@H](O)C(=O)/C=C\C[C@H](C)OC2=O` was tested, and the TGI was 13300 nM and 20700 nM.
In the case of `COc1cccc(-c2cc(=O)c3cc(N(C)C)ccc3[nH]2)c1`, the TGI is reported as > 100000 nM and 59200 nM.

Reference: PubChem BioAssay (NCI)
